Experimental data reported in patent US20240252594A1, “COMBINATION THERAPY FOR NEURODEGENERATIVE DISEASES” (ALETA NEUROSCIENCE, LLC, priority 2021, published 2024).

How the values were obtained:
R6/2 HD mice = settings: 10-day oral treatment, 9-week mice; cited from earlier work
[1] = test system: human dopaminergic neurons (iCell DopaNeurons); assay: MPP+-induced neurotoxicity: cytolysis of iCell DopaNeurons; assay type: cell-based; settings: for Cytolysis, Mean ± S.D.: with MPP+ 100 μM
Protocol: Three different measurements were made in the experiments. Neurite length in mm was measured, which is a measure of increase in dendril length of neurons. […] Secondly, neurite branching was measured. […] Thirdly, cytolysis of the cells was measured. […] Experimental conditions were measured relative to the results of healthy cells in the studies.
(§1) Procedure. iCell DOPA neurons were thawed and cultured following the provider's instructions in Brainphys medium+provided supplements+1% N2 supplement (Stemcell Technologies)+penicillin/streptomycin+Laminin. They were plated at 20000 cells per well of a 384 well plate (pre-coated with poly-D-lysine and Laminin) in 70 μL of growth medium. Cells were incubated at 37° ° C./5% CO2 in a humidified cell culture incubator. Half of the culture medium was changed twice a week.
(§2) MPP+-induced neurotoxicity: 24 hours after neuronal plating, half of the medium was removed and the test compounds were applied with MPP+ treatment, both concentrated at 4×, were added to the wells. For each well, five aliquots were added, corresponding columns A-E in Table 3. In each row, either the compound indicated dissolved in its vehicle noted in Table 2 was added, or only a vehicle was added as indicated. Column E is an indicator of whether MPP+ was added. If not, only the medium was added.
(§3) For the evaluation of conditions 8, 10,12, 22, 24, Neurite outgrowth was followed for subsequent 48 hours using an Incucyte Zoom platform with one phase contrast image every 4 hours, using a 20× objective. After 48 hours, the medium containing test compounds and MPP+ was removed and replaced by fresh medium containing a fluorescent cytolysis marker (red fluorescence) and a live cell marker (green fluorescence). For the evaluation of conditions 10, 12, 24, 38, 40, 51-53, Neurite outgrowth was followed similarly for subsequent 72 hours after MPP+ was added.
Data was normalized to control conditions as there is basal cytolysis in the cell culture after thawing.

PD patients = settings: at 6 months; cited from earlier work
[2] = test system: human dopaminergic neurons (iCell DopaNeurons); assay: MPP+-induced neurotoxicity: neurite outgrowth (neurite length, branch points) on iCell DopaNeurons; assay type: cell-based
Excerpt: MPP+(1-methyl-4-phenylpyridinium) is a known neurotoxin which acts by interfering with oxidative phosphorylation in mitochondria by inhibiting complex I, a protein in the membrane of mitochondria in dopaminergic neurons in the substantia nigra.(94) The inhibition of mitochondrial function leads to the depletion of ATP and eventual cell death. MPP+ ultimately causes Parkinsonism in primates by killing certain dopamine-producing neurons in the substantia nigra.
iCell DOPA neurons are neural floor plate-derived midbrain dopaminergic neurons generated from human induced pluripotent stem cells (iPSCs). Dopaminergic neurons, specifically those located in the floor plate-derived midbrain are implicated in neurological disorders such as Parkinson's disease, MSA and DLBD among others. […] The iCellDopa neurons were supplied from FUJIFILM Cellular Dynamics.
as §1, §2, §3
Assay endpoints and data analysis. Phase contrast images were analyzed at each time point to determine the neurite length and number of branch points per mm^2. Kinetic data was plotted and kinetics were normalized by subtracting the value of the first data point (at time of treatment), allowing to measure changes in neurite outgrowth only from the onset of the treatment, starting at zero. Area Under Curve (AUC) of kinetic data was obtained and used for plotting compound's effects and perform statistical analyzes.

APP/PS1 mice = settings: 6-month treatment with 0.4% of TUDCA in diet; cited from earlier work
[3] = test system: IL-6 mediated inflammation in microglial cells; assay: LPS/ATP-induced neuroinflammation in microglia: IL-6 secretion (Luminex); assay type: cell-based, human
Excerpt: (§4) In addition to the studies discussed above assessing activity of combinations of drugs on MPP+-induced neurodegeneration toxicity on human dopaminergic neurons as well as on a human iPSC cell line harboring a triplication mutation in alpha-synuclein gene, and measuring neuronal growth, neurite branching and neurofilament heavy chain, we also assessed combinations of drugs in reducing lipopolysaccharide (LPS, from E. coli)-induced neuroinflammation in human microglia cells.
(§5) Lipopolysaccharides are important outer membrane components of gram-negative bacteria such as E. coli and Salmonella. They are large amphipathic glycoconjugates that typically consist of a lipid domain (hydrophobic) attached to a core oligosaccharide and a distal polysaccharide. LPS binds to Toll-like receptor 4 (TLR4) and activates microglia(98) which in turn increases secretion of pro-inflammatory cytokines such as interleukin-6 (IL-6), tumor necrosis factor-α (TNF-α), and CXCL1/GROα.
(§6) Microglia cells were obtained from an iCell® Microglia kit, 01279 (Catalogue N^o R1131) from FUJIFILM Cellular Dynamics. We followed the manufacturer's protocol for activation of the microglial cells with LPS/ATP to subsequently measure the effect of the study drugs on pro-inflammatory cytokines IL-6, TNF-α and CXCL1/GROα.
(§7) All cell culture procedures were performed in aseptic conditions, under a laminar flow hood. Microglia were thawed and cultured following the provider's instructions. The microglia were plated at 50,000 cells per well of a Corning Primaria 96 well plate (Ref N^o 353872) in 100 μL of growth medium. Cells were incubated at 37° C./5% CO2 in a humidified cell culture incubator.
(§8) Three days after cell plating, the test or reference substances (25 μL of solutions at 5×) were applied 1 hour before LPS and ATP stimulation.
(§9) One hour later, 12.5 μL of test or reference substances were added again at 2× concentrated followed by 12.5 μL of LPS at 12× concentration. Fifty microliters of ATP were introduced at 4× concentration, 5 h 30 min after incubation with LPS.
(§10) Six hours after LPS incubation, the supernatant of each well was collected and centrifugated at 1000 g for 10 minutes to remove the cells and debris.
(§11) Fifty microliters of supernatant from NT and LPS+ATP-treated wells were used to determine cytokine secretion (IL-6, TNF-α, CXCL1/GROα) by Luminex platform according to the provider's instructions. Samples were diluted prior to the assay to fit within the standard range if needed. Three wells were tested per each condition (Table 11). Cytokines levels in the supernatant were expressed in pg/mL. The data was analyzed using a One-Way ANOVA followed by Bonferroni test.

cortical neurons = settings: 100 μM for 12 h; cited from earlier work
[4] = test system: CXCL1/GROα mediated neuroinflammation in microglial cells; assay: LPS/ATP-induced neuroinflammation in microglia: CXCL1/GROα secretion (Luminex); assay type: cell-based, human
Excerpt: as §4, §5, §6, §7, §8, §9, §10, §11

[5] = test system: iPSC-derived dopaminergic (DA) neurons harboring triplication of the α-synuclein locus; assay: α-Synuclein triplication cell line: neurofilament heavy chain signal intensity; assay type: cell-based, human; settings: normalized to Hoechst signal; three months treatment; PBA 500 μM, TUDCA 50 μM, EXD 100 nM
Protocol: We used 12 replicas for each experimental condition and 16 replicas for control (untreated cells). […] Cells were washed three times with warm phosphate buffered saline (PBS) and imaged immediately at 20× magnification on an imageXpress Micro confocal at 37° C. and 5% CO2.
Following imaging, cells were immediately fixed with 4% paraformaldehyde for 30 minutes at room temperature, washed three times with PBS, permeabilized with 0.2% Triton X-100 for 30 minutes, blocked with Odyssey Blocking Buffer for 60 minutes, and incubated overnight at 4° C. with primary antibodies, neurofilament (1:1000, Synaptic Systems 171 002) and LB509 (1:100, Abcam ab27766). Cells were washed 3× with 0.1% Tween-20 in PBS and incubated with Alexa Fluor Goat Anti-Rabbit 790 (1:1000) and Goat Anti-Mouse 647 (1:1000) for 1 hour at RT, before washing 3× with 0.1% Tween-20 in PBS and imaging with Sapphire Biomolecular Imager. Neurofilament heavy chain signal intensity was normalized to fixed Hoechst signal measured with Spectra Gemini plate reader (ex=350 nm, em=461 nm), using Hoechst 33342 nucleic acid stain from Invitrogen according to the manufacturer's instructions. Neurofilaments (NF) are located mostly in axons and indicate roughly the content of neurites. If neurodegeneration is halted or reversed, NF signal increases because it correlates with the number and/or length of neurites in the well.

R6/2 transgenic mice = settings: 500 mg/kg; cited from earlier work
[6] = test system: riluzole-treated patients; settings: cited from earlier work
MPTP mouse model = settings: pre-treatment 50 mg/kg for 3 days; cited from earlier work
[7] = test system: TNF-α mediated neuroinflammation in microglial cells; assay: LPS/ATP-induced neuroinflammation in microglia: TNF-α secretion (Luminex); assay type: cell-based, human
Excerpt: as §4, §5, §6, §7, §8, §9, §10, §11

[8] = test system: patients with rapidly progressive SOD1 ALS; settings: not statistically significant; cited from earlier work
SOD(G93A) mice = settings: treatment from 75 days; cited from earlier work
[9] = LPS (100 ng/mL) + ATP (5 mM), six hours after LPS
[10] = compared with […] distilled water in presence of LPS and ATP

Cc1c(O)c(=O)ccn1C [DFP, Deferiprone]
Motor endurance (R6/2 HD mice): improved motor endurance
Cytolysis, Mean ± S.D. ([1]; Table 9.2, plate 2): 71.91 ± 1.28%
UPDRS for motor skills, early start group (PD patients): 21.6±8
Protective effect on neurite length and branching (in words) ([2]; MPP+ 100 μM): substantially inferior to condition 40
Neurite length - Baseline-corrected AUC (0-72 h), Mean ([2]; Table 6.1, plate 2, with MPP+ 100 μM): 874.5 mm/mm^2
Number of branch points per mm^2 - Baseline-corrected AUC (0-72 h), Mean ([2]; Table 6.2, plate 2, with MPP+ 100 μM): 24282.5 per mm^2
Neurite length, Mean ± S.D. ([2]; Table 8.1, plate 2, with MPP+ 100 μM, 72 hours): 1303.0 ± 378.7 mm/mm^2
Neurite Branching, Mean ± S.D. ([2]; Table 8.2, plate 2, with MPP+ 100 μM, 72 hours): 51711.3 ± 15178.4 per mm^2

C[C@H](CCC(=O)NCCS(=O)(=O)O)[C@H]1CC[C@H]2[C@@H]3[C@@H](O)C[C@@H]4C[C@H](O)CC[C@]4(C)[C@H]3CC[C@]12C [TUDCA, Tauroursodeoxycholic acid]
Aβ plaque accumulation in the brain (APP/PS1 mice): prevented Aβ plaque accumulation in the brain
IL-6 in supernatant, Mean ± S.D. [3, 9]: 437.81 ± 24.71 pg/mL
IL-6 in supernatant, Replicate 1 [3, 9]: 410.97 pg/mL
IL-6 in supernatant, Replicate 2 [3, 9]: 442.87 pg/mL
IL-6 in supernatant, Replicate 3 [3, 9]: 459.60 pg/mL
Decrease of IL-6 concentration [3, 10]: 37%
Cytolysis, Mean ± S.D. ([1]; Table 9.1, plate 1): 70.69 ± 2.02%
Reduction of cytolysis (cell death) (in words) ([1]; vs Control/MPP+): did not reduce cytolysis with statistical significance
Aβ peptide-associated apoptosis (cortical neurons): significantly decrease Aβ peptide-associated apoptosis
CXCL1/GROα in supernatant, Mean ± S.D. [4, 9]: 424.96 ± 48.95 pg/mL
CXCL1/GROα in supernatant, Replicate 1 [4, 9]: 447.19 pg/mL
CXCL1/GROα in supernatant, Replicate 2 [4, 9]: 368.84 pg/mL
CXCL1/GROα in supernatant, Replicate 3 [4, 9]: 458.86 pg/mL
Decrease of GROα concentration [4, 10]: 32%
Neurofilament Heavy Chain signal intensity, mean [5]: 1.313
Neuroprotection (R6/2 transgenic mice): neuroprotective effects
Baseline-adjusted ALSFRS-R at study end vs placebo ([6]; P=0.007): significantly higher
Tolerability ([6]; human, in vivo): well tolerated
Proportion of responders ([6]; placebo 43%, P=0.021): 87%
Increase of neurite length compared with MPP+ alone (control/MPP+) ([2]; AUC, MPP+ 100 μM): 43%
Increase of number of branch points compared with MPP+ alone (control/MPP+) ([2]; AUC, MPP+ 100 μM): 60%
Neurite length, Mean ([2]; Table 7.1, plate 1, with MPP+ 100 μM, 72 hours): 1825.9 mm/mm^2
Neurite Branching, Mean ± S.D. ([2]; Table 7.2, plate 1, with MPP+ 100 μM, 72 hours): 58836.3 ± 9596.4 per mm^2
Neurodegeneration of nigral dopaminergic neurons caused by MPTP (MPTP mouse model): significantly reduced neurodegeneration of the nigral dopaminergic neurons
TNF-α in supernatant, Mean ± S.D. [7, 9]: 28.57 ± 0.58 pg/mL
TNF-α in supernatant, Replicate 1 [7, 9]: 29.01 pg/mL
TNF-α in supernatant, Replicate 2 [7, 9]: 27.92 pg/mL
TNF-α in supernatant, Replicate 3 [7, 9]: 28.79 pg/mL
Decrease of TNF-α concentration [7, 10]: 52%

[O-][n+]1cccc(/C(Cl)=N/OC[C@H](O)CN2CCCCC2)c1 [arimoclomol, Arimoclomol]
Survival, hazard ratio [8]: 0.77
Lifespan (SOD(G93A) mice): significantly increased the lifespan
